Measurements as given in patent US4175081A, “5-Substituted thiadiazole ureas” (priority 1977, dated 1979).

Experiments:
Turnip (TP) = experiment: Pre-emergence herbicide test; type: in vivo, Brassica sp.; details: Brassica rapa, pre-emergence, 336 h, two weeks after treatment
Outline: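 Turnip (Brassica sp.) seeds were surface sown in 3' plastic pots of potting soil, covered with a thin layer of screened soil, and sub-irrigated in greenhouse trays. Pots were seeded one day ahead of treatment, sprayed pre-emergence under a hood with a fixed nozzle and moving belt, then kept in the greenhouse.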

Corn (CN) [1] = experiment: Post-emergence herbicide test; type: in vivo; details: Zea mays, 336 h, two weeks after treatment
Outline: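 Greenhouse seedlings grown in potting soil and sprayed post-emergence at 8 lbs compound/acre (formulations also made for 4 lbs/acre) in 38 gallons/acre spray volume. Watering by sub-irrigation only. Injury or control rated visually two weeks after treatment.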

[2] = test system: Yellow foxtail grass (YF); experiment: Post-emergence herbicide test; type: in vivo, Setaria glauca; details: Setaria, 336 h, two weeks after treatment
Outline: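 Potted seedlings grown in greenhouse, planting staggered to reach the target stage together, then sprayed post-emergence at 8 lbs actual compound/acre in 38 gallons/acre (4 lbs/acre formulations also prepared). Sub-irrigated afterwards. Injury or control rated visually two weeks after treatment.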

Cotton (CT) [3] = experiment: Post-emergence herbicide test; type: in vivo, Gossypium hirsutum var. DPL smooth leaf; details: Gossypium hirsutum, post-emergence, 336 h, two weeks after treatment
Outline: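 Cotton (Gossypium hirsutum var. DPL smooth leaf) was grown in 3' plastic pots of potting soil, four seeds per pot, planted at a depth equal to the seed diameter and watered by sub-irrigation. At the stage of expanded cotyledons with the first true leaf 1' long, plants were sprayed post-emergence in a hood with a fixed nozzle over a moving belt. Percent control was rated visually two weeks later.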

Johnson grass (JG) = experiment: Post-emergence herbicide test; type: in vivo, Sorgum helepense; details: Sorghum halepense, 336 h, two weeks after treatment
Outline: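 Greenhouse pot-grown seedlings sprayed post-emergence at 8 lbs compound per acre (some at 4 lbs/acre) in 38 gallons per acre spray volume. Sub-irrigated thereafter. Injury/control rated visually two weeks after treatment.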

Bean (BN) [4] = experiment: Pre-emergence herbicide test; type: in vivo, Phaseolus vulgaris var. Black Valentine; details: Phaseolus vulgaris, 336 h, two weeks after treatment
Outline: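 Black Valentine bean was seeded in potting soil one day before spraying. Compound was applied pre-emergence at 8 lbs/acre (also 4 lbs/acre) in 38 gallons per acre. Plants were sub-irrigated and injury or control was rated visually after two weeks.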

Barnyard grass (BG) [5] = experiment: Pre-emergence herbicide test; type: in vivo; details: Echinochloa crus-galli, 336 h, two weeks after treatment
Outline: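 Barnyard grass surface-seeded in potting soil and sprayed pre-emergence one day after seeding, at 8 or 4 lb compound/acre in 38 gal/acre spray volume. Pots kept in greenhouse with sub-irrigation only; injury or control rated visually two weeks after treatment.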

Corn (CN) [6] = experiment: Pre-emergence herbicide test; type: in vivo; details: Zea mays, 336 h, two weeks after treatment
Outline: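 Four corn seeds per pot, sown at seed-diameter depth one day before spraying, got soil surface treatment at 8 lbs/acre (4 lbs/acre formulations also prepared) in 38 gallons/acre. Pots were greenhouse-held with sub-irrigation only. Injury or control was scored visually two weeks after treatment.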

Barnyard grass (BG) [7] = experiment: Post-emergence herbicide test; type: in vivo; details: Echinochloa crus-galli, 336 h, two weeks after treatment
Outline: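 Greenhouse pot-grown barnyard grass seedlings sprayed post-emergence at 8 lbs active compound per acre (some at 4 lbs/acre) in 38 gallons per acre, then sub-irrigated. Injury or control rated visually two weeks after treatment.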

Cotton (CT) [8] = experiment: Pre-emergence herbicide test; type: in vivo, Gossypium hirsutum var. DPL smooth leaf; details: Gossypium hirsutum, 336 h, two weeks after treatment
Outline: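 Crop and weed species seeded one day before treatment, then sprayed pre-emergence at 8 lbs actual compound per acre (also 4 lbs/acre formulations) in 38 gallons per acre. Pots kept in greenhouse with sub-irrigation only; injury or control visually rated two weeks after treatment.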

Crabgrass (CG) = experiment: Pre-emergence herbicide test; type: in vivo, Digitaria sanquinalis; details: Digitaria sanguinalis, pre-emergence, 336 h, two weeks after treatment
Outline: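 Crabgrass (Digitaria sanquinalis) was surface seeded in 3' plastic pots of potting soil, covered with screened soil, and watered by sub-irrigation in greenhouse trays. Pots were seeded one day before spraying in a hood with a moving belt and fixed nozzle. Plants stayed in the greenhouse on sub-irrigation, and pre-emergence control was rated visually two weeks after treatment.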

[9] = test system: Yellow foxtail grass (YF); experiment: Pre-emergence herbicide test; type: in vivo, Setaria glauca; details: Setaria, 336 h, two weeks after treatment
Outline: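 Seeds surface-sown in potting soil one day before spraying; compounds applied pre-emergence at 8 or 4 lbs/acre in 38 gallons/acre spray. Pots held in greenhouse with sub-irrigation only. Injury or control rated visually two weeks after treatment.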

Sinapis = experiment: Field test, pre-emergence application; type: in vivo; details: reading 0 = no effect, 10 = completely killed, 14 and 20 days
Experimental: Tests have also been made for the compound of Example 1 with Sinapis, oats and wheat. This test was conducted according to the following procedure.
Forty rows, 70 feet long, were planted to weeds and crops. Two rows were planted on each bed. Beds were 40 inches apart from center to center. The two rows were about 10 inches apart on each bed. Beds were rolled prior to planting to provide a uniform smooth surface. Soil temperature at a depth of 11/2 inches was 66° F. at time of planting. Post-emergence applications were made by spraying bands across rows 10 feet wide using a self-propelled plot sprayer with a 10 foot boom equipped with Teejet 8001 flat spray nozzle tips and operated at 40 psi. A total of 84 fluid ounces of spray material was applied to three replicates. Each replicate plot was 10 feet wide by 66.67 feet long. […]
Eight days after the application, readings were made on the effect of the chemicals on each crop and weed in the post-emergence treatment. A reading of 0 was recorded if no effect was observed; 10 recorded if the plants were completely killed, and readings of 1 to 9 for intermediate kills. A second reading of the post-emergence treatments was made 14 days after the application.
Readings were made 14 and 20 days after the pre-emergence application.

Bean (BN) [10] = experiment: Post-emergence herbicide test; type: in vivo, Phaseolus vulgaris var. Black Valentine; details: Phaseolus vulgaris, post-emergence, 336 h, two weeks after treatment
Outline: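 Snapbean (Phaseolus vulgaris var. Black Valentine) was tested post-emergence. Four seeds were sown in 3' plastic pots of potting soil at a depth equal to the seed diameter, then sub-irrigated in greenhouse trays. Planting dates were staggered so plants were sprayed once primary leaves had expanded, with the growing point at the primary leaf nodes.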

## CNC(=O)Nc1nnc(C(F)(F)F)s1 [Example 1, 1-Methyl-3-[5-Trifluoromethyl-2-(1,3,4-Thiadiazolyl)] Urea]
Turnip (TP); 4 lb/acre
  pest or weed control at 4483.4 g/ha: 90%
Turnip (TP); 8 lb/acre
  pest or weed control at 8966.8 g/ha: 100%
Corn (CN) [1]; 2 lb/acre
  pest or weed control: 70%
Corn (CN) [1]; 4 lb/acre
  pest or weed control at 4483.4 g/ha: 100%
Corn (CN) [1]; 8 lb/acre
  pest or weed control at 8966.8 g/ha: 100%
[2]; 2 lb/acre
  pest or weed control: 50%
[2]; 4 lb/acre
  pest or weed control at 4483.4 g/ha: 90%
[2]; 8 lb/acre
  pest or weed control at 8966.8 g/ha: 100%
Cotton (CT) [3]; 2 lb/acre
  pest or weed control at 2241.7 g/ha: 100%
Cotton (CT) [3]; 4 lb/acre
  pest or weed control at 4483.4 g/ha: 100%
Cotton (CT) [3]; 8 lb/acre
  pest or weed control at 8966.8 g/ha: 100%
Johnson grass (JG); 2 lb/acre
  pest or weed control: 90%
Johnson grass (JG); 4 lb/acre
  pest or weed control at 4483.4 g/ha: 90%
Johnson grass (JG); 8 lb/acre
  pest or weed control at 8966.8 g/ha: 100%
Bean (BN) [4]; 4 lb/acre
  pest or weed control at 4483.4 g/ha: 90%
Bean (BN) [4]; 8 lb/acre
  pest or weed control at 8966.8 g/ha: 90%
Barnyard grass (BG) [5]; 4 lb/acre
  pest or weed control at 4483.4 g/ha: 90%
Barnyard grass (BG) [5]; 8 lb/acre
  pest or weed control at 8966.8 g/ha: 90%
Corn (CN) [6]; 4 lb/acre
  pest or weed control at 4483.4 g/ha: 30%
Corn (CN) [6]; 8 lb/acre
  pest or weed control at 8966.8 g/ha: 90%
Barnyard grass (BG) [7]; 2 lb/acre
  pest or weed control at 2241.7 g/ha: 70%
Barnyard grass (BG) [7]; 4 lb/acre
  pest or weed control at 4483.4 g/ha: 100%
Barnyard grass (BG) [7]; 8 lb/acre
  pest or weed control at 8966.8 g/ha: 100%
Cotton (CT) [8]; 4 lb/acre
  pest or weed control at 4483.4 g/ha: 80%
Cotton (CT) [8]; 8 lb/acre
  pest or weed control at 8966.8 g/ha: 100%
Crabgrass (CG); 4 lb/acre
  pest or weed control at 4483.4 g/ha: 90%
Crabgrass (CG); 8 lb/acre
  pest or weed control at 8966.8 g/ha: 100%
[9]; 4 lb/acre
  pest or weed control at 4483.4 g/ha: 80%
[9]; 8 lb/acre
  pest or weed control at 8966.8 g/ha: 90%
Sinapis; 1 lb/acre
  Pre-emergency activity, % control, Sinapis: 10 rating score (0–10 scale)
Sinapis; 2 lbs/acre
  Pre-emergency activity, % control, Sinapis: 10 rating score (0–10 scale)
Bean (BN) [10]; 2 lb/acre
  pest or weed control at 2241.7 g/ha: 100%
Bean (BN) [10]; 4 lb/acre
  pest or weed control at 4483.4 g/ha: 100%
Bean (BN) [10]; 8 lb/acre
  pest or weed control at 8966.8 g/ha: 100%
